Assay results as given in patent US6693123B2 (University of Pittsburgh, priority 1995, dated 2004).

target: T1, Rat brain protein farnesyltransferase (Rattus norvegicus, UniProt Q02293+Q04631); assay: In vitro inhibition of protein farnesyltransferase, Amersham scintillation proximity assay with biotin-K Ras B fragment; assay type: biochemical; details: Inhibition of farnesyltransferase; compound at 1 × 10^−6 M (Table 2)
T1 construct: The enzyme is purified according to Reiss, Y., et al., Cell, 62: 81-88 (1990), utilizing steps one through three; from tissue; host or cells: rat brain
Description: The ability of the compounds of the invention to inhibit protein farnesyltransferase or protein geranylgeranyltransferase can be measured according to the method of Moores, et al., J. Biol. Chem. 266: 14603 (1991) or the method of Vogt, et al., J. Biol. Chem. 270:660-664 (1995). In addition, procedures for determination of the inhibition of farnesylation of the oncogene protein Ras are described by Goldstein, et al., J. Biol. Chem., 266:15575-15578 (1991) and by Singh in U.S. Pat. No. 5,245,061.
In addition, in vitro inhibition of protein farnesyltransferase may be measured by the following procedure. Rat brain protein farnesyltransferase activity is measured using an Amersham Life Science commercial scintillation proximity assay kit and substituting a biotin-K Ras B fragment (biotin-[…]Ue-Met-CO2H), 0.1 mM final concentration, for the biotin-lamin substrate provided by Amersham. The enzyme is purified according to Reiss, Y., et al., Cell, 62: 81-88 (1990), utilizing steps one through three. […]
The % inhibition of protein farnesyltransferase was determined for representative compounds of the invention.

| Structure (SMILES) | % inhibition at 1 × 10^−6 M |
| --- | --- |
| Cc1ccccc1-c1cc(COc2cccnc2)ccc1C(=O)N[C@@H](CCC(N)=O)C(=O)O [Example 313, (S)-2-N-[4-(3-Pyridyloxymethyl)-2-(2-methyl)phenylbenzoyl]amino-4-(aminocarbonyl)butanoic Acid] | 94% |
| CNC(=O)CC[C@H](NC(=O)c1ccc(COc2cccnc2)cc1-c1ccccc1C)C(=O)O [Example 314, (S)-2-N-[4-(3-Pyridyloxymethyl)-2-(2-methylphenyl)benzoyl]amino-4-(N-methylaminocarbonyl)butanoic Acid] | 97% |
| CCNC(=O)CC[C@H](NC(=O)c1ccc(COc2cccnc2)cc1-c1ccccc1C)C(=O)O [Example 315, (S)-2-N-[4-(3-Pyridyloxymethyl)-2-(2-methylphenyl)benzoyl]amino-4-(N-ethylaminocarbonyl)butanoic Acid] | 93% |
| CSCCC(NC(=O)c1ccc(COc2cccnc2)cc1-c1ccccc1)C(=O)NS(=O)(=O)N1CCOCC1 (stereo not shown) [Example 318, [4-(3-Pyridyloxymethyl)-2-phenylbenzoyl]methionine 1-Morpholinylsulfonimide] | 98% |
| CSCC[C@H](NC(=O)c1ccc(CSc2cccnc2)cc1-c1ccccc1C)C(=O)O [Example 324] | 98% |
| CSCC[C@H](NC(=O)c1ccc(COc2cccnc2)cc1-c1ccccc1)C(=O)OCc1oc(=O)oc1C [Example 326, [4-(3-Pyridyloxymethyl)-2-phenylbenzoyl]methionine O-Dimethylvinylene Carbonate Ester] | 91% |

same assay, conditions: Inhibition of farnesyltransferase; compound at 1 × 10^−6 M (Table 2); read-out: % inhibition at 1 × 10^−6 M

| Structure (SMILES) | inhibition at 1 µM |
| --- | --- |
| COC(=O)[C@H](CCSC)NC(=O)c1ccc(NCc2cccnc2)cc1-c1ccccc1C [Example 308, [4-(3-Pyridylmethylamino)-2-(2-methylphenyl)benzoyl]methionine Methyl Ester] | 62% |
| CSCC[C@H](NC(=O)c1ccc(NCc2cccnc2)cc1-c1ccccc1C)C(=O)O [Example 309, [4-(3-Pyridylmethylamino)-2-(2-methylphenyl)benzoyl]methionine] | 98% |
| Cc1ccccc1-c1cc(COc2cccnc2)ccc1C(=O)N[C@@H](CCS(C)(=O)=O)C(=O)O [Example 311, N-[4-(3-Pyridyloxymethyl)-2-(2-methylphenyl)benzoyl]-2-amino-4-(methylsulfonyl)butanoic Acid] | 97% |
| NC(=O)CC[C@H](NC(=O)c1ccc(COc2cccnc2)cc1-c1ccccc1)C(=O)O [Example 316, (S)-2-N-[4-(3-Pyridyloxymethyl)-2-phenylbenzoyl]amino-4-(aminocarbonyl)butanoic Acid] | 63% |

Next, values leading:

| inhibition at 1 µM | Structure (SMILES) |
| --- | --- |
| 98% | CCCCc1cc(C(=O)N[C@@H](CCSC)C(=O)O)c(-c2ccccc2C)cc1COc1cccnc1 [Example 319, [4-(3-Pyridyloxymethyl)-2-(2-methylphenyl)-5-butylbenzoyl]methionine] |
| 93% | CSCC[C@H](NC(=O)c1cc(CC(C)C)c(COc2cccnc2)cc1-c1ccccc1C)C(=O)O [Example 320, [4-(3-Pyridyloxymethyl)-2-(2-methylphenyl)-5-isobutylbenzoyl]methionine] |
| 99% | CSCC[C@H](NC(=O)c1ccc(CSc2cccnc2)cc1-c1ccccc1C)C(=O)NS(=O)(=O)c1ccccc1 [Example 325] |
| 98% | CSCC[C@H](NC(=O)c1ccc(CCc2c[nH]cn2)cc1-c1ccccc1)C(=O)O [Example 329, {4-[2-(1H-Imidazol-4-yl)ethyl]-2-phenylbenzoyl}methionine] |
| 98% | CSCC[C@H](NC(=O)c1ccc(CSCc2c[nH]cn2)cc1-c1ccccc1C)C(=O)O [Example 331, [4-(1H-Imidazol-4-ylmethylthiomethyl)-2-(2-methylphenyl)benzoyl]methionine] |
| 26% | CSCC[C@H](NC(=O)c1ccc(CNC(=O)c2cn(C)cn2)cc1-c1ccccc1)C(=O)O [Example 332, [4-(1H-1-Methylimidazol-4-ylcarbonylaminomethyl)-2-phenylbenzoyl]methionine] |
